Experimental data published in patent US10857105B2, “Compounds and compositions for intracellular delivery of therapeutic agents” (ModernaTX, Inc., priority 2017, dated 2020).
Blank lines part the entries; values can stand above or below the compound they belong to.

Tests used:
[1] = Clinical chemistry and hematology in rat 48 h after intravenous 2 mpk dose; type: in vivo; settings: 48 h post dose
Protocol: Sample formulations of nanoparticle compositions including different lipids were administered intravenously to rat at a dose of 2 mpk. The expression of various clinical markers was evaluated at 48 h post dose and compared to that induced by administration of MC3 formulations or phosphate buffered saline (PBS).

luciferase (Luc) mRNA = assay: Luciferase expression (whole body bioluminescence) after intravenous administration to mice; type: in vivo; settings: for Total Flux 3 hours / Total Flux 6 hours / Total Flux 24 hours: mice (n=6), 0.5 mg/kg; for Total Flux 3 hours / Total Flux 6 hours / Total Flux 24 hours / Fold increase in Luc expression over MC3 upon intravenous administration / Novel lipid/MC3 expression ratio, i.v.: intravenous; for Fold increase in Luc expression over MC3 upon intravenous administration: higher doses than the intramuscular data; for Novel lipid/MC3 expression ratio, i.v.: luciferase, 6 hr. time point, relative to MC3 formulation
In short: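 Luc mRNA nanoparticles were given IV at 0.5 mg/kg to groups of six mice, and whole-body bioluminescent flux was imaged 3, 6 and 24 h post-dose. Flux AUC for each lipid formulation was reported as a ratio to the MC3 reference formulation.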

mouse tissues = assay: Lipid clearance from mouse tissues after weekly dosing 0.05 mg/kg mRNA on day 1, 8 and 15; type: in vivo
Protocol: Repeat dosing of mRNA in an MC3-based LNP for a therapeutic indication would be expected to lead to accumulation of MC3 in tissues, based on the measured half-life. Therefore it was investigated whether the favorable single dose pharmacokinetics of compound 18 were maintained with weekly dosing. Clearance of MC3 and compound 18 from multiple mouse tissues was measured after dosing 0.05 mg/kg mRNA on day 1, 8 and 15 (FIG. 30A). Following dosing with MC3 LNPs, lipid was detected in liver, spleen, plasma, kidney, heart and lung; with liver and spleen containing the largest concentrations (FIG. 30A, for full panel of tissues see FIG. 35A). […] Compound 18 was also detected in plasma, lung, and kidney, but not in heart (FIG. 35A).

hEPO mRNA = assay: hEPO expression and cytokine induction after intravenous administration to mice; type: in vivo; settings: for hEPO expression, 3 h / Cytokine expression, IL-6 (6 h) / Cytokine expression, IP-10 (6 h) / hEPO expression, 6 h / hEPO expression, 24 h: intravenous 0.5 mpk
Protocol: FIG. 17 is a graph showing the hEPO mRNA expression in CD1-mice measured 3 h (left block), 6 h (middle block) and 24 h (right block) after intravenous administration of various nanoparticle compositions. Numbers 1-13 refer to compositions containing an mRNA expressing hEPO and the following: 1: Compound 147, 2: Compound 184, 3: Compound 232; 4: Compound 189; 5: Compound 200; 6: Compound 233; 7: Compound 234; 8: Compound 235; 9: Compound 237; 10: Compound 239; 11: Compound 243; 12: MC3; 13: PBS. […]
Sample formulations of nanoparticle compositions including different lipids are generally first evaluated according to Luc expression in vivo. The activity of several such compositions was further evaluated using an mRNA encoding hEPO. Nanoparticle compositions including Compounds 6, 18, 25, 30, 108-112, 60, and 122, or MC3 were prepared according to Example 2.
The expression of hEPO and cytokine induction in mice intravenously administered a nanoparticle composition at a dose of 0.5 mpk were measured at 3, 6, and 24 hours. […] The expression of hEPO in mice intramuscularly administered a nanoparticle composition from Table 1B at a dose of 0.01 mpk were measured at 3, 6, and 24 hours. […] (see
Table 12 compares the nanoparticle compositions including compounds according to Formula (I), (IA), (IB), (II), (IIa), (IIb), (IIc), (IId), (IIe), (IIf), (IIg), or (III) to the compositions including MC3 on the basis of expression and flux levels. […] Thus, these lipids may be useful in nanoparticle composition therapeutics.

[2] = Pharmacokinetic study of lipids in plasma, liver and spleen (compound 18, compound 25, MC3); settings: for HL: table titled mouse; for AUC / Cmax / Tmax / half-life: male, Sprague-Dawley, rat, iv; for clearance from liver tissue: rat pharmacokinetic study, 24-48 hours
[3] = Chemical stability of lipids in ethanol at room temperature and 37° C. (lipid purity); type: physicochemical
Protocol: Ester linkages were previously reported to trigger metabolism by esterases in vivo. (See Fukami, T. et al. Drug Metab. Pharmacokinet. 2012, 27, 466-477, the content of which is incorporated by reference herein in its entirety). […] (See Maier M. A., Mol. Ther. 2013, 21, 1570-1578, the content of which is incorporated herein in its entirety) First, the chemical stability of the lipids was evaluated by measuring ethanol stability at room temperature and 37° C. (Table 39). […] LNPs formed with compound 138 were larger, with a surface pKa>7. […] Removal of one ester function (compound 136) afforded LNPs with improved physiochemical characteristics and lower LNP surface pKa.

[4] = intravenous administration (Table 3D)

Compound: CCCCCC=CCC=CCCCCCCCCC(CCCCCCCCC=CCC=CCCCCC)OC(=O)CCCN(C)C (centres unmarked) [MC3, heptatriaconta-6,9,28,31-tetraen-19-yl 4-(dimethylamino)butanoate, reference compound]
Concentration, Alanine aminotransferase [1]: 339
Concentration, Aspartate aminotransferase [1]: 325
Concentration, Lymphocytes [1]: 19976
Concentration, Monocytes [1]: 1429
Concentration, Neutrophils [1]: 4962.5
Lipid/MC3 Luc expression (luciferase (Luc) mRNA; 0.5 mpk dose to mouse, 6 hours after administration): 1
Average total flux (6 h, ffluc) (luciferase (Luc) mRNA; 6 h, ffluc): 6.59 × 10^9
Fold increase in average total flux relative to MC3 (luciferase (Luc) mRNA; 6 h, ffluc): 1
AUC (luciferase (Luc) mRNA; i.v. administration (Table 3C)): 8.24E+10 h*p/s
Fold increase AUC Lipid/MC3 (luciferase (Luc) mRNA; i.v. administration (Table 3C)): 1
Fold increase in total body Luc Flux relative to MC3 at 6 h (luciferase (Luc) mRNA; i.v. administration, 6 h): 1.00
6 h Lipid/MC3 Avg. Luc Expression (luciferase (Luc) mRNA; i.v. administration, 6 h (Table 3C)): 1
AUC (luciferase (Luc) mRNA; [4]): 1.909E+011 p/s*h
Lipid/MC3 AUC (luciferase (Luc) mRNA; [4]): 1
Total Flux 3 hours (luciferase (Luc) mRNA): 1.58E+10
Total Flux 6 hours (luciferase (Luc) mRNA): 2.12E+10
Total Flux 24 hours (luciferase (Luc) mRNA): 7.19E+08
lipid levels in tissues on weekly dosing (mouse tissues): Accumulation of MC3 was observed after each dose
Average hEPO concentration (pg/ml, 6 h) (hEPO mRNA; 6 h): 1.83e+06 pg/mL
Fold increase in hEPO concentration relative to MC3 (hEPO mRNA; Table 12, 6 h): 1
hEPO expression, 3 h (hEPO mRNA; mice): 1.57e+06 pg/mL
Cytokine expression, IL-6 (6 h) (hEPO mRNA; mice, 6 h): 19.85 pg/mL
Cytokine expression, IP-10 (6 h) (hEPO mRNA; mice, 6 h): 117.94 pg/mL
hEPO expression, 6 h (hEPO mRNA; mice, 6 h): 1.83e+06 pg/mL
hEPO expression, 24 h (hEPO mRNA; mice): 810000 pg/mL
HL ([2]; Liver, * = 2 terminal datapoints estimation): 52.5* hr
HL ([2]; Plasma): 8.4 h
HL ([2]; Spleen, * = 2 terminal datapoints estimation): 33.3* hr
AUC ([2]; liver): 1410 µg·h/mL
Cmax ([2]; liver): 33000 ng/mL
Tmax ([2]; liver): 24 h
half-life ([2]; liver): > 50 h
AUC ([2]; plasma): 69.1 µg·h/mL
Cmax ([2]; plasma): 28900 ng/mL
Tmax ([2]; plasma): 0.5 h
AUC ([2]; spleen): 787 µg·h/mL
Cmax ([2]; spleen): 21200 ng/mL
Tmax ([2]; spleen): 8 h
clearance from liver tissue ([2]; liver): still present at high concentrations at 48 hours

Concentration, Alanine aminotransferase [1]: 52
Concentration, Aspartate aminotransferase [1]: 124.5
Concentration, Lymphocytes [1]: 15924
Concentration, Monocytes [1]: 2122
Concentration, Neutrophils [1]: 1998
half-life ([2]; liver): 6.9 h
Lipid Purity, t = 96 h, 25° C. [3]: 96.23%
Lipid Purity, t = 96 h, 37° C. [3]: 96.13%
Lipid Purity, t = 0 [3]: 95.58%
Compound: CCCCCCCCCCCOC(=O)CCCCCN(CCO)CCCCCCCC(=O)OC(CCCCCCCC)CCCCCCCC [Compound 25, Heptadecan-9-yl 8-((2-hydroxyethyl)(6-oxo-6-(undecyloxy)hexyl)amino)octanoate]
clearance from liver tissue ([2]; liver): efficiently cleared from liver tissue by 24 hours

Compound: CCCCCCCCCOC(=O)CCCN(CCO)CCCCCCCC(=O)OC(CCCCCCCC)CCCCCCCC [Compound 26, Heptadecan-9-yl 8-((2-hydroxyethyl)(4-(nonyloxy)-4-oxobutyl)amino) octanoate]
Fold increase in Luc expression over MC3 upon intravenous administration (luciferase (Luc) mRNA): highest fold increase
Lipid Purity, t = 96 h, 25° C. [3]: 97.38%
Lipid Purity, t = 96 h, 37° C. [3]: 95.72%
Lipid Purity, t = 0 [3]: 98.64%

Concentration, Alanine aminotransferase [1]: 51.5
Concentration, Aspartate aminotransferase [1]: 90
Concentration, Lymphocytes [1]: 14100
Concentration, Monocytes [1]: 1834
Concentration, Neutrophils [1]: 1790.5
Compound: CCCCCC/C=C\COC(=O)CCCCCCCN(CCO)CCCCCCCC(=O)OC(CCCCCCCC)CCCCCCCC [Compound 24, Heptadecan-9-yl (Z)-8-((2-hydroxyethyl) (8-(non-2-en-1-yloxy)-8-oxooctyl)amino)octanoate]

Compound: CCCCCCCCC(C)OC(=O)CCCCCCCN(CCO)CCCCCCCC(=O)OC(CCCCCCCC)CCCCCCCC (centres unmarked) [Compound 48, decan-2-yl 8-((8-(heptadecan-9-yloxy)-8-oxooctyl)(2-hydroxyethyl)amino)octanoate]
Novel lipid/MC3 expression ratio, i.v. (luciferase (Luc) mRNA): 10.0

Concentration, Alanine aminotransferase [1]: 56
Concentration, Aspartate aminotransferase [1]: 95
Concentration, Lymphocytes [1]: 10408.5
Concentration, Monocytes [1]: 877
Concentration, Neutrophils [1]: 3195
Compound: CCCCCCCCCOC(=O)CCCCCCCN(CCO)CCCCCCCOC(=O)C(CCCCCCCC)CCCCCCCC [Compound 30, 7-((2-Hydroxyethyl)(8-(nonyloxy)-8-oxooctyl)amino)heptyl 2-octyldecanoate]

Concentration, Alanine aminotransferase [1]: 53.5
Concentration, Aspartate aminotransferase [1]: 87.5
Concentration, Lymphocytes [1]: 12051
Concentration, Monocytes [1]: 2103
Concentration, Neutrophils [1]: 3388.5
Compound: CCCCCCCCCN(CCO)CCCCCCCC(=O)OC(CCCCCCCC)CCCCCCCC [Compound 3, Heptadecan-9-yl 8-((2-hydroxyethyl)(nonyl)amino)octanoate]

Compound: CCCCCCCCCOC(=O)CCCCCCCN(CCO)CCCCCCCC(=O)OC(CCCCCCCC)CCCCCCCC [Compound 18, Heptadecan-9-yl 8-((2-hydroxyethyl)(8-(nonyloxy)-8-oxooctyl)amino)octanoate]
Fold increase in Luc expression over MC3 upon intravenous administration (luciferase (Luc) mRNA): highest fold increase
lipid levels in tissues on weekly dosing (mouse tissues): significantly lower levels than MC3
hEPO expression, 3 h (hEPO mRNA; mice): 3e+06 pg/mL
Cytokine expression, IL-6 (6 h) (hEPO mRNA; mice, 6 h): 10.16 pg/mL
Cytokine expression, IP-10 (6 h) (hEPO mRNA; mice, 6 h): 299.93 pg/mL
hEPO expression, 6 h (hEPO mRNA; mice, 6 h): 3.38e+06 pg/mL
hEPO expression, 24 h (hEPO mRNA; mice): 1.8e+06 pg/mL
hEPO concentrations compared with MC3 formulations (hEPO mRNA; mice, intravenous, 0.5 mpk, 3, 6 and 24 hours): higher hEPO concentrations than MC3 formulations at each time point
clearance from liver tissue ([2]; liver): efficiently cleared from liver tissue by 24 hours
Lipid Purity, t = 96 h, 25° C. [3]: 94.71%
Lipid Purity, t = 96 h, 37° C. [3]: 95.01%
Lipid Purity, t = 0 [3]: 94.37%

Compound: Nonyl 8-((6-(heptadecan-9-yloxy)-6-oxohexyl)(2-hydroxyethyl)amino) octanoate [Compound 27]
Fold increase in total body Luc Flux relative to MC3 at 6 h (luciferase (Luc) mRNA; i.v. administration, 6 h): 0.31
Novel lipid/MC3 expression ratio, i.v. (luciferase (Luc) mRNA): 0.31
Total Flux 3 hours (luciferase (Luc) mRNA): 1.64E+10
Total Flux 6 hours (luciferase (Luc) mRNA): 1.03E+10
Total Flux 24 hours (luciferase (Luc) mRNA): 1.94E+09
